Source: ChEMBL document CHEMBL1201862, “PubChem BioAssay data set” (2004)
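Cells were grown in 96-well plates and exposed to each compound for 48 hours at five concentrations; endpoints were interpolated linearly between bracketing concentrations, or set to the highest concentration if not reached. GI50 = concentration required for 50% inhibition of growth.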 Active and inactive are the calls of the source. Cut-off read from the data, not from the text of the source: active = GI50 up to about 1.1 µM and inactive = higher.

How the values were obtained:
Assay in all cases: growth of human tumour cells (NCI), 48 h
EKVX = system: EKVX
CAKI-1 = system: CAKI-1
MCF7 = system: MCF7
SNB-19 = system: SNB-19
NCI-H226 = system: NCI-H226
KM12 = system: KM12
SW-620 = system: SW-620
MDA-MB-231 = system: MDA-MB-231
SN12C = system: SN12C
SR = system: SR
BT-549 = system: BT-549
T47D = system: T47D
A549 = system: A549
SK-MEL-5 = system: SK-MEL-5
IGROV-1 = system: IGROV-1
HL-60 = system: HL-60
UO-31 = system: UO-31
OVCAR-8 = system: OVCAR-8
TK-10 = system: TK-10

Measured: GI50

COC1OC(Cc2nnc(C)o2)C(OCc2ccccc2)C(OCc2ccccc2)C1OCc1ccccc1 (stereo unspecified)
inactive: EKVX 12.7 µM | CAKI-1 35.6 µM | MCF7 20.3 µM | SNB-19 57.8 µM | NCI-H226 29.5 µM | KM12 15.8 µM | SW-620 40.1 µM | MDA-MB-231 36.1 µM | SN12C 28.3 µM | SR 13.2 µM | BT-549 25.7 µM | T47D 52.5 µM | A549 27.2 µM | SK-MEL-5 16.3 µM | IGROV-1 13.9 µM | HL-60 26.2 µM | UO-31 33.1 µM

CC[N+](C)(CC)CCC(O)(c1ccccc1)c1ccccc1
inactive: EKVX > 100 µM | MCF7 > 100 µM | SNB-19 > 100 µM | NCI-H226 > 100 µM | KM12 > 100 µM | SW-620 > 100 µM | OVCAR-8 > 100 µM | MDA-MB-231 > 100 µM | SN12C > 100 µM | SR > 100 µM | BT-549 > 100 µM | T47D > 100 µM | TK-10 > 100 µM | A549 > 100 µM | SK-MEL-5 > 100 µM | IGROV-1 > 100 µM | HL-60 > 100 µM | UO-31 > 100 µM

CC1(CCc2ccccc2)CC1(Br)Br (stereo unspecified)
inactive: EKVX 19.1 µM | CAKI-1 56.5 µM | MCF7 38.8 µM | SNB-19 > 100 µM | NCI-H226 24 µM | KM12 35.7 µM | SW-620 > 100 µM | OVCAR-8 23.6 µM | MDA-MB-231 73.1 µM | SN12C 18 µM | SR 19.8 µM | BT-549 > 100 µM | T47D 27.2 µM | A549 32.9 µM | SK-MEL-5 13.1 µM | IGROV-1 92 µM | HL-60 21.5 µM | UO-31 39.4 µM

O=C1Nc2ccccc2/C1=N/N1C(=O)/C(=C/c2ccccc2S)N=C1c1ccccc1
inactive: EKVX 48.3 µM | CAKI-1 91.6 µM | MCF7 58.7 µM | SNB-19 > 100 µM | KM12 66.4 µM | SW-620 71.1 µM | OVCAR-8 36.2 µM | MDA-MB-231 > 100 µM | SN12C > 100 µM | SR 21.3 µM | BT-549 91 µM | T47D 25.5 µM | TK-10 > 100 µM | A549 89.5 µM | SK-MEL-5 81.8 µM | IGROV-1 97.1 µM | HL-60 40.9 µM | UO-31 61.4 µM

CC1CCCc2c(CC3CC(=O)NC(=O)C3)nc(N)nc21 (stereo unspecified)
inactive: EKVX > 100 µM | CAKI-1 > 100 µM | MCF7 > 100 µM | NCI-H226 > 100 µM | KM12 > 100 µM | SW-620 > 100 µM | OVCAR-8 > 100 µM | MDA-MB-231 > 100 µM | SN12C > 100 µM | SR > 100 µM | BT-549 > 100 µM | T47D > 100 µM | TK-10 > 100 µM | A549 > 100 µM | SK-MEL-5 > 100 µM | IGROV-1 > 100 µM | HL-60 2.21 µM

N#CC1=C(N)Nc2nc3ccccc3n2C1c1ccccc1 (stereo unspecified)
inactive: EKVX 9.2 µM | CAKI-1 46.8 µM | MCF7 97.7 µM | SNB-19 > 100 µM | KM12 53.7 µM | SW-620 55.6 µM | OVCAR-8 55.1 µM | MDA-MB-231 45.9 µM | SN12C > 100 µM | SR 83.6 µM | BT-549 23.8 µM | T47D 20.2 µM | A549 42 µM | SK-MEL-5 37.6 µM | IGROV-1 51.5 µM | HL-60 > 100 µM | UO-31 64.3 µM

Fc1cccc(F)c1C1SCc2nc3ccc(Cl)cc3n21 (stereo unspecified)
inactive: EKVX > 100 µM | CAKI-1 > 100 µM | MCF7 > 83 µM | SNB-19 > 100 µM | KM12 63 µM | SW-620 > 100 µM | OVCAR-8 > 100 µM | MDA-MB-231 > 100 µM | SN12C > 100 µM | SR 48.4 µM | BT-549 > 100 µM | T47D 95.3 µM | TK-10 > 100 µM | A549 > 100 µM | SK-MEL-5 85.3 µM | IGROV-1 > 100 µM | HL-60 40.5 µM | UO-31 > 100 µM

COCCOC(C)C(=O)C(O)S(=O)(=O)O (stereo unspecified)
inactive: EKVX > 100 µM | MCF7 > 100 µM | SNB-19 > 100 µM | NCI-H226 > 100 µM | KM12 > 100 µM | SW-620 > 100 µM | OVCAR-8 > 100 µM | MDA-MB-231 > 100 µM | SN12C > 100 µM | SR > 100 µM | BT-549 > 100 µM | T47D > 100 µM | TK-10 > 100 µM | A549 > 100 µM | SK-MEL-5 > 100 µM | IGROV-1 > 100 µM | HL-60 > 100 µM | UO-31 > 100 µM
